According to US20090012089A1, “Oxazolidinone Compounds and Their Use as Metabotropic Glutamate Receptor Potentiators” (ASTRAZENECA AB, priority 2005, published 2009):

Target: T1, human mGluR2 (Homo sapiens, UniProt Q14416)
T1 construct: expressed in transfected cells; host or cells: CHO cells, stably transfected; membrane preparation
Assay: [35S]-GTPγS binding assay of mGluR2 receptor activation (allosteric activator activity) with CHO cell membranes
Assay type: biochemical
Settings: membranes from CHO cells stably expressing human mGluR2; in presence of 1 μM glutamate
Method: A [^35S]-GTPγS binding assay was used to functionally assay mGluR2 receptor activation. The allosteric activator activity of compounds at the human mGluR2 receptor were measured using a [^35S]-GTPγS binding assay with membranes prepared from CHO cells which stably express the human mGluR2. The assay is based upon the principle that agonists bind to G-protein coupled receptors to stimulate GDP-GTP exchange at the G-protein. Since [^35S]-GTPγS is a non-hydrolyzable GTP analog, it can be used to provide an index of GDP-GTP exchange and, thus, receptor activation. The GTPγS binding assay therefore provides a quantitative measure of receptor activation.
Membranes were prepared from CHO cells stably transfected with human mGluR2. Membranes (30 μg protein) were incubated with test compound (3 nM to 300 μM) for 15 minutes at room temperature prior to the addition of 1 μM glutamate, and incubated for 30 min at 30° C. in 500 μl assay buffer (20 mM HEPES, 100 mM NaCl, 10 mM MgCl2), containing 30 μM GDP and 0.1 nM [^35S]-GTPγS (1250 Ci/mmol). Reactions were carried out in triplicate in 2 ml polypropylene 96-well plates. Reactions were terminated by vacuum filtration using a Packard 96-well harvester and Unifilter-96, GF/B filter microplates. The filter plates were washed 4×1.5 ml with ice-cold wash buffer (10 mM sodium phosphate buffer, pH 7.4). The filter plates were dried and 35 μl of scintillation fluid (Microscint 20) was added to each well. The amount of radioactivity bound was determined by counting plates on the Packard TopCount. Data was analyzed using GraphPad Prism, and EC50 and Emax values (relative to the maximum glutamate effect) were calculated using non-linear regression.

T1 sequence (Q14416 19-872): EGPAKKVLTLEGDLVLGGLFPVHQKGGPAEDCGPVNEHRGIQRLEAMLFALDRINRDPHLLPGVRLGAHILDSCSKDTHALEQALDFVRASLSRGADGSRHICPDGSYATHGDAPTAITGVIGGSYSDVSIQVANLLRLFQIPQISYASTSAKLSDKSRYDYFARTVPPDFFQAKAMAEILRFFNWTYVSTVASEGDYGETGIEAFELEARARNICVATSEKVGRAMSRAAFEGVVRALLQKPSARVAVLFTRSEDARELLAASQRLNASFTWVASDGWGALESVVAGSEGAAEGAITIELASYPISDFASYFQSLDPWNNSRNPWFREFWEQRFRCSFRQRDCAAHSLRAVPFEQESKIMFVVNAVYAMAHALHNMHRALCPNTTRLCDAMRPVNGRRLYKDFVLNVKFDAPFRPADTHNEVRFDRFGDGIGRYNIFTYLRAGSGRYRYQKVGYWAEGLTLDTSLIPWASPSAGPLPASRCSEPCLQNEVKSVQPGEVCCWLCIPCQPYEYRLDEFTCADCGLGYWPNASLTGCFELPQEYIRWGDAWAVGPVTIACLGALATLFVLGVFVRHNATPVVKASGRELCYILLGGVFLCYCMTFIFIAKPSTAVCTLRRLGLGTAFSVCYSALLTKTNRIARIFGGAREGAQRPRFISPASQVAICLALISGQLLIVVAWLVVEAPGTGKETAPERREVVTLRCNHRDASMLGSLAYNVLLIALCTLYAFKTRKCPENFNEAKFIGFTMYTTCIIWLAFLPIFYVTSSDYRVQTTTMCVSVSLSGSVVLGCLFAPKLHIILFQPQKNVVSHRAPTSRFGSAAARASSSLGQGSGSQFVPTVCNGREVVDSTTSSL

Compound | EC50
O=C(NC1CCN(Cc2ccccc2)C1)c1ccc(-c2ccc(CN3C[C@@H](c4ccccc4)OC3=O)cc2)cc1 (stereo in doubt) [Example 10.29, 4′-(2-Oxo-5-(R)-phenyl-oxazolidin-3-ylmethyl)-biphenyl-4-carboxylicacid (1-benzyl-pyrrolidin-3-(S)-yl)-amide] | 120 nM
O=C1OC(c2ccc(F)cc2)CN1Cc1ccc(Oc2ccccc2)cc1 (centres unmarked) [Example 13.5, 5-(4-Fluoro-phenyl)-3-(4-phenoxy-benzyl)-oxazolidin-2-one] | 390 nM
O=C1O[C@H](c2ccccc2)CN1Cc1ccc(OC(F)(F)F)cc1 [Example 3.1, 5-(R)-Phenyl-3-(4-trifluoromethoxy-benzyl)-oxazolidin-2-one] | 1960 nM

The next lines start with the values.

EC50 | Compound
910 nM | COc1cncc(-c2ccc(C3CN(Cc4ccc(OC(F)(F)F)cc4)C(=O)O3)cc2)c1 (centres unmarked) [Example 17.2, 5-[4-(5-Methoxy-pyridin-3-yl)-phenyl]-3-(4-trifluoromethoxy-benzyl)-oxa-zolidin-2-one]
3100 nM | CN(C)CCNC(=O)c1cccc(-c2ccc(C3CN(Cc4ccc(Cl)cc4)C(=O)O3)cc2)c1 (centres unmarked) [Example 17.3, 4′-[3-(4-Chloro-benzyl)-2-oxo-oxa-zolidin-5-yl]-biphenyl-3-carboxylic acid(2-dimethylamino-ethyl)-amide]
